# Source: patent US9464052B2, “Potassium ion channel modulators and uses thereof” (Ramot at Tel-Aviv University Ltd., priority 2008, dated 2016)
# Target: KCNQ2/KCNQ3 potassium channel (Homo sapiens, UniProt O43525+O43526)
# Test: KCNQ2/KCNQ3 potassium channel current, automated parallel patch clamp (PatchXpress 7000A)
# Format: cell-based
# Conditions: channel expressed in mammalian cells, ambient temperature
# Protocol: The objective of this study was to examine the in vitro effects of the Example compounds on the KCNQ2/KCNQ3 potassium channel current expressed in mammalian cells using the PatchXpress 7000A (Molecular Devices), an automatic parallel patch clamp system. The test compounds were evaluated at 30 μM with this concentration tested in 3 cells (n=3). The duration of exposure to the test compound concentration was 5 minutes. […] The results for a positive control, flupirtine (Table 2) confirm the sensitivity of the test system to detect KCNQ2/KCNQ3 current enhancement.
# All experiments were performed at ambient temperature. Each cell acted as its own control.
# A 30 μM concentration of test compound was applied via disposable polyethylene micropipette tips to naïve cells (n=2, where n=the number cells). Each solution exchange, performed in quadruplicate, consisted of aspiration and replacement of 45 of the total 50 μL volume of the extracellular well of the Sealchip16.
# Vehicle was applied to naïve cells (n 2, where n=the number cells), for a 5 minute exposure interval. Each solution exchange, performed in quadruplicate, consisted of aspiration and replacement of 45 μL of the total 50 μL volume of the extracellular well of the Sealchip16. After vehicle application, the positive control was applied in the same manner, to verify sensitivity of the assay.
# In preparation for a recording session, intracellular solution was loaded into the intracellular compartments of the Sealchip16 planar electrode. Cell suspension was pipetted into the extracellular compartments of the Sealchip16 planar electrode. After establishment of a whole-cell configuration, membrane currents were recorded using dual-channel patch clamp amplifiers in the PatchXpress®system. Before digitization, the current records were low-pass filtered at one-fifth of the sampling frequency.
# Data acquisition and analyses were performed using the suite of pCLAMP programs (Axon Instruments, Union City, Calif.). Steady state was defined by the limiting constant rate of change with time (linear time dependence). The steady state before and after test article application was used to calculate the percentage of current inhibited at each concentration. Results obtained from different cell were averaged and presented as Mean±S.D.—see Tables 1 and 2.
# [1] = 30 μM test compound, 5 minutes exposure
Structure (SMILES),Mean % Enhancement of KCNQ2/KCNQ3 [1],"Mean % Enhancement of KCNQ2/KCNQ3 (10 μM positive control, applied after vehicle)"
"O=C(Cc1cccc(Nc2c(Cl)cc(Cl)cc2Cl)c1)NCCO [Example 1, N-(2-Hydroxy-ethyl)-2-[3-(2,4,6-trichloro-phenylamino)-phenyl]-acetamide]",168.2%,
"O=C(O)CNC(=O)Cc1ccc(Nc2cc(Cl)cc(Cl)c2)cc1 [Example 4, {2-[4-(3,5-Dichlorophenylamino)-phenyl]-acetylamino}-acetic acid]",181.9%,
"O=C(Cc1ccc(Nc2c(Cl)cc(C(F)(F)F)cc2Cl)cc1)NCCO [Example 3, 2-[4-(2,6-Dichloro-4-trifluoromethyl-phenylamino)-phenyl]-N-(2-hydroxy-ethyl)-acetamide]",115.8%,
"CCOC(=O)Nc1ccc(NCc2ccc(F)cc2)nc1N [Flupirtine, reference compound]",,201.0%
"O=C(O)CNC(=O)Cc1cc(Nc2cc(Cl)cc(Cl)c2)ccc1F [Example 2, {2-[5-(3,5-Dichloro-phenylamino)-2-fluoro-phenyl]-acetylamino}-acetic acid]",162.5%,
